Experimental findings from the METLIN SMRT retention time set (Domingo-Almenara et al. 2019) are described below.

The series in a line: gradient 5% acetonitrile 3 min, to 50% in 2 min, to 85% in 15 min, held 3 min, 100 µL/min. As to conditions: column: Zorbax Extend-C18 2.1 x 50 mm; eluents: water / acetonitrile, 0.1% formic acid. In outline: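 Standards, all pure, were combined into mixtures of ~100 molecules and run at 100 μL/min on a Zorbax Extend-C18 column (2.1 × 50 mm, 1.8 μm) with water and acetonitrile, each containing 0.1% formic acid. A coupled quadrupole time-of-flight mass spectrometer operated in positive and negative ionization mode. Retention time values come from computationally picked adduct peaks, each inspected manually.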
The compound `COc1ccc(NC(=O)C2CCCN2S(=O)(=O)c2ccc3c(c2)N(C(C)=O)CCO3)cc1` (centres undefined) registered an RP-LC retention time of 762 s. Compound `CN1c2cc(F)ccc2C(=O)NC12CCN(C(=O)c1cccc(Cl)c1)CC2` had an RP-LC retention time of 800 s.

`CC(Cc1ccco1)NC(=O)C1CCN(S(C)(=O)=O)CC1` (centres undefined): the RP-LC retention time amounted to 632 s. As for `CC(C)c1ccc(-c2nc3ccccc3s2)cc1`, the figure is 958 s. Next, `COc1ccccc1-c1noc(C2CCCN2C(=O)NC(C)C)n1` (centres undefined): 753 s; `COCC(=O)NC(Cc1ccccc1)c1nnc(N2CCSCC2)o1` (centres undefined): 721 s; `Cc1c(Cl)cccc1NC(=O)N1CCC(n2cnc3ccccc3c2=O)CC1`: 791 s. Next, `CCc1cc(C(=O)NCc2ccc(F)cc2)nc2ccnn12`: 909 s; `O=C(NCc1noc(CCc2ccccc2)n1)c1ccc(-c2noc(C3CC3)n2)cc1`: 977 s.

`O=C(Cn1c(=O)n(-c2ccccc2)c2ncccc21)NCCCN1CCOCC1` yielded an RP-LC retention time of 596 s. Regarding `COc1ccc(NC(=O)CSc2nccc(N3CCCC3)n2)cc1Cl`, the RP-LC retention time amounted to 593 s. Next, `COC(=O)COC(=O)c1cn(-c2ccc(OC)cc2)c(=O)c2ccccc12`: 924 s; `CCCNC(=O)C1CCN(S(C)(=O)=O)c2cc(Cl)ccc2O1` (centres undefined): 747 s. Next, `CCOCCCNC(=O)Cn1c(-c2cccs2)cc2cc(F)ccc21`: 946 s; `O=C(Cn1c(=O)c(=O)n(Cc2ccccc2)c2ncccc21)NCCc1ccco1`: 797 s. Next, `CCn1cc(CC(=O)NC2CCCCCC2)c2cccnc21`: 768 s. `CC(C)(C)NCC(O)COc1ccc(NC(=O)NC2CCCCC2)cc1` (centres undefined) returned an RP-LC retention time of 628 s. As for `O=C(NCc1ccccc1Cl)C(=O)Nc1cccc(N2CCCCC2=O)c1`, the figure is 751 s.

`CC(C)NC(=O)CCC1CCN(c2cc(NC3CC3)ncn2)CC1` registered an RP-LC retention time of 551 s. `CN(C)c1ccc(C(=O)N2CCN(c3cc(-c4cccs4)[nH]n3)CC2)cc1` showed an RP-LC retention time of 714 s.

The compound `O=C(c1cc(-c2ccccc2)n(C2CCS(=O)(=O)C2)n1)N1CCCC1` (centres undefined) displayed an RP-LC retention time of 682 s. On to `O=S(=O)(c1cccnc1)N1CC(c2noc(C3CCCN3CC3CC3)n2)C1` (centres undefined), for which the RP-LC retention time was 592 s. As for `O=C(NCc1ccccc1)N1CCN(c2ncccc2-c2nnc(C3CC3)o2)CC1`, the figure is 738 s.

Compound `Cc1ccccc1Cn1cc(-c2ccncc2)cc1C(=O)NCC(C)C` yielded an RP-LC retention time of 712 s. As for `O=C(Nc1ccc(F)cc1)N1CCc2nc(-c3ccc(Cl)cc3)ncc2C1`, the figure is 1010 s; as for `CNC(=O)N1CCCC(c2cccc(C(=O)NCc3ccc(C(F)(F)F)cc3)c2)C1` (centres undefined), 853 s; as for `CCOc1ccc(NC(=O)N2CCCN(c3ncccc3-c3nc(C4CC4)no3)CC2)cc1`, 944 s. Next, `COc1cccc(NC(=O)Cn2ccc3ccc(-c4nnc(C)o4)cc32)c1`: 788 s. As for `O=C(Nc1ccccc1)C(=O)Nc1ccccc1[N+](=O)[O-]`, the figure is 917 s; as for `O=C(OCn1nnc2ccccc2c1=O)c1ccccc1[N+](=O)[O-]`, 1030 s. `CCc1nn(CCO)c(CC)c1Oc1cc(C#N)cc(C#N)c1`: the RP-LC retention time came to 891 s. `O=C1C(N2CCN(S(=O)(=O)c3ccc(F)cc3F)CC2)CCN1Cc1cccnc1` (centres undefined) gave an RP-LC retention time of 542 s. As for `Cc1cc(Cl)ccc1NC(=O)Cn1c(C)nc2onc(C)c2c1=O`, the figure is 818 s; as for `Cc1nnc2c(=O)n(CC(=O)NCc3cccc(C(F)(F)F)c3)c3cccnc3n12`, 738 s.
